Results published in paper PMC3577938 (Organic & biomolecular chemistry, 2013).

Experiments:
human TLR7 or human TLR8 = assay type: cell-based; conditions: for agonistic activity (in words): primary TLR8/TLR7 reporter gene assays, receptor not given; for TLR8 versus TLR7 selectivity (in words): primary reporter gene screens
[1] = system: human peripheral blood mononuclear cells (hPBMC); assay: Cytokine induction in human PBMCs; assay type: cell-based; conditions: human PBMCs stimulated 12 h
human TLR8 = biological target: T1, human TLR8 (Homo sapiens, UniProt Q9NR97); assay: Human TLR8-specific reporter gene assay; assay type: cell-based; conditions: for Agonistic Activity (μM) TLR8: EC50 in human TLR8-specific reporter gene assay, Inactive = EC50 >100 μM
T1 sequence (Q9NR97 27-1041): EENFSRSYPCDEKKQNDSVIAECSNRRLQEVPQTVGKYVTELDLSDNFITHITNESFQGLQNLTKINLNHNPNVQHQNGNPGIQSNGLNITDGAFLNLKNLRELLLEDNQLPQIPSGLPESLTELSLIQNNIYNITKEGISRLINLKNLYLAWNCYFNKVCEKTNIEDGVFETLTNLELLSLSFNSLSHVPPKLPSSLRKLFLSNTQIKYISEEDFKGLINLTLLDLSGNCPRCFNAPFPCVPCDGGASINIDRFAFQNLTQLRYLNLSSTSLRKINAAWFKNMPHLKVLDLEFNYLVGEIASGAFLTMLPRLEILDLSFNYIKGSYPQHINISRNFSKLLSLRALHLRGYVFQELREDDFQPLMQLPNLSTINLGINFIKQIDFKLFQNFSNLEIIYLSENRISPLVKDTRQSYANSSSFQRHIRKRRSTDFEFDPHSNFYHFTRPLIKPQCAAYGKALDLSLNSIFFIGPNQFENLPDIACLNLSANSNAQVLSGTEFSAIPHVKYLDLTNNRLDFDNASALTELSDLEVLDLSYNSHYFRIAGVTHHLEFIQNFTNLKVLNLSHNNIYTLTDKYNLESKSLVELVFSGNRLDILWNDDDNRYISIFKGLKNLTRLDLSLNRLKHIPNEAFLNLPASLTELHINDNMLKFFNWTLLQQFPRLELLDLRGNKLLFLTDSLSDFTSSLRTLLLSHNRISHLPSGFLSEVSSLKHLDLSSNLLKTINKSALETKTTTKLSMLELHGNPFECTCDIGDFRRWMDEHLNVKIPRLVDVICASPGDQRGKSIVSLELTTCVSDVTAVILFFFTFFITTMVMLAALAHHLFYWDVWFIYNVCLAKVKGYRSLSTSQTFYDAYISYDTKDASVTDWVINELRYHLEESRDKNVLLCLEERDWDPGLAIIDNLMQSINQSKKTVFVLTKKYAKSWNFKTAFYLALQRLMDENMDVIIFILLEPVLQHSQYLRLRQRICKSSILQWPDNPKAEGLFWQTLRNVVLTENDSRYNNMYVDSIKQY

human TLR7 = biological target: T2, human TLR7 (Homo sapiens, UniProt Q9NYK1); assay: Human TLR7-specific reporter gene assay; assay type: cell-based; conditions: EC50 in human TLR7-specific reporter gene assay; Inactive = EC50 >100 μM
T2 sequence (Q9NYK1 27-1049): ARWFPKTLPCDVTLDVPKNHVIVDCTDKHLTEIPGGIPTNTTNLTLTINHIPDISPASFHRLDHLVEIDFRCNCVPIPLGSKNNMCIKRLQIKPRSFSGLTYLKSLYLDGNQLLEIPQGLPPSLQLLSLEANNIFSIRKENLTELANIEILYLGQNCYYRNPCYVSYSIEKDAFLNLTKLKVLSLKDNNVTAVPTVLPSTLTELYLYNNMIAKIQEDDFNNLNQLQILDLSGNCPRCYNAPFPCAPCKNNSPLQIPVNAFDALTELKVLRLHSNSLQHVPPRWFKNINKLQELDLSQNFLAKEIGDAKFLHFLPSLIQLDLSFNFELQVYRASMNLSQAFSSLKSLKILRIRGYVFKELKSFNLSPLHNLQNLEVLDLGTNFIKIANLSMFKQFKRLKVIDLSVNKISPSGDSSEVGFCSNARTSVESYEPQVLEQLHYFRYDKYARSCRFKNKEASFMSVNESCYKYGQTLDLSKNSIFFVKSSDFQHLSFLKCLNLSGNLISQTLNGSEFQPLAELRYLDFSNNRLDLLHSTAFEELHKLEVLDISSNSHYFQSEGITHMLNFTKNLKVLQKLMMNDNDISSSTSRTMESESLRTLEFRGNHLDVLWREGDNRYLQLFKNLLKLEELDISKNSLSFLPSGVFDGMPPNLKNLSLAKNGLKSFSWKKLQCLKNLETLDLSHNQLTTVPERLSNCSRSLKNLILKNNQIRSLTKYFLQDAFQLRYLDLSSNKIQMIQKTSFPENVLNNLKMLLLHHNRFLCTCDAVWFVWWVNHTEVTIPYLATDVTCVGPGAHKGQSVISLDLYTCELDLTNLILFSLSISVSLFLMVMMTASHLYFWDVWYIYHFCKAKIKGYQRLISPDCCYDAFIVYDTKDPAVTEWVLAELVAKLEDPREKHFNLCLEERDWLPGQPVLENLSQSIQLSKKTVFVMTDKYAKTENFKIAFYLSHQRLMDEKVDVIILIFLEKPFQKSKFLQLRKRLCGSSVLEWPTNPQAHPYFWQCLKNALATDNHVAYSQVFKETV

[2] = system: New Zealand White rabbits; assay: Rabbit immunization with bovine α-lactalbumin and antigen-specific ELISA; assay type: in vivo; conditions: compared with 8c

SMILES	agonistic activity (in words) (human TLR7 or human TLR8)	TLR8 versus TLR7 selectivity (in words) (human TLR7 or human TLR8)	proinflammatory cytokine induction in hPBMCs (in words) [1]	Agonistic Activity (μM) TLR8 (human TLR8)	Agonistic Activity (μM) TLR7 (human TLR7)	TLR8-agonistic potency/activity (in words) (human TLR8; hTLR8 reporter gene assay)	consistency of adjuvanticity (confidence intervals of antibody titers) [2]
CC(C)Cc1nc2c(N)nc3ccccc3c2s1 [Compound 8j, 2-isobutylthiazolo[4,5-c]quinolin-4-amine]	well tolerated	substantially more TLR8-selective	inferior in their cytokine induction profiles				
CCCCc1nc2c(NC(C)=O)nc3ccccc3c2s1 [Compound 18b, N-(2-butylthiazolo[4,5-c]quinolin-4-yl)acetamide]	selective loss of activity			Inactive	Inactive		
CCCCCCCC(=O)Nc1nc2ccccc2c2sc(CCC)nc12 [Compound 15g, N-(2-propylthiazolo[4,5-c]quinolin-4-yl)octanamide]	inactive			Inactive	Inactive		
CC(C)(C)CCc1nc2c(N)nc3ccccc3c2s1 [Compound 8m, 2-(3,3-dimethylbutyl)thiazolo[4,5-c]quinolin-4-amine]	inactive			Inactive	Inactive		
CCCc1nc2c(NC(=N)N)nc3ccccc3c2s1 [Compound 17, 1-(2-propylthiazolo[4,5-c]quinolin-4-yl)guanidine]	inactive			Inactive	Inactive		
CCCc1nc2c(NC(=O)c3ccccc3)nc3ccccc3c2s1 [Compound 15i, N-(2-propylthiazolo[4,5-c]quinolin-4-yl)benzamide]	entirely inactive			Inactive	Inactive		
CCCC(=O)Nc1ccc2nc(N)c3nc(CCC)sc3c2c1 [Compound 13b, N-(4-amino-2-propylthiazolo[4,5-c]quinolin-8-yl)butyramide]	inactive			Inactive	Inactive		
CC(C)(C)Cc1nc2c(N)nc3ccccc3c2s1 [Compound 8k, 2-neopentylthiazolo[4,5-c]quinolin-4-amine]	inactive			Inactive	Inactive		
CC[C@H](C)Cc1nc2c(N)nc3ccccc3c2s1 [Compound 8o, (S)-2-(2-methylbutyl)thiazolo[4,5-c]quinolin-4-amine]	active	substantially more TLR8-selective	inferior in their cytokine induction profiles				
CC[C@H](C)c1nc2c(N)nc3ccccc3c2s1 [Compound 8n, (S)-2-(sec-butyl)thiazolo[4,5-c]quinolin-4-amine]	well tolerated	substantially more TLR8-selective	inferior in their cytokine induction profiles				
CCCc1nc2c(NC=O)nc3ccccc3c2s1 [Compound 15d, N-(2-propylthiazolo[4,5-c]quinolin-4-yl)formamide]	active		near-complete loss of activity			comparable to that of 8c	
CCCc1nc2c(N)nc3ccc([N+](=O)[O-])cc3c2s1 [Compound 9, 8-nitro-2-propylthiazolo[4,5-c]quinolin-4-amine]	inactive			Inactive	Inactive		
CCCCCCNc1nc2ccccc2c2sc(CCC)nc12 [Compound 15b, N-hexyl-2-propylthiazolo[4,5-c]quinolin-4-amine]	devoid of any agonistic activity			Inactive	Inactive		
CCCc1nc2c(NC(N)=O)nc3ccccc3c2s1 [Compound 15q, 1-(2-propylthiazolo[4,5-c]quinolin-4-yl)urea]	inactive			Inactive	Inactive		
CCCCCCNc1ccc2nc(N)c3nc(CCC)sc3c2c1 [Compound 13a, N^8-hexyl-2-propylthiazolo[4,5-c]quinoline-4,8-diamine]	inactive			Inactive	Inactive		
CCCCCCCCCCCCCCCC(=O)Nc1nc2ccccc2c2sc(CCC)nc12 [Compound 15h, N-(2-propylthiazolo[4,5-c]quinolin-4-yl)palmitamide]	inactive			Inactive	Inactive		
CCCCc1nc2c(N)nc3ccccc3c2s1 [Compound 8d, 2-butylthiazolo[4,5-c]quinolin-4-amine]							greater consistency and uniformity
CC(C)CCc1nc2c(N)nc3ccccc3c2s1 [Compound 8l, 2-isopentylthiazolo[4,5-c]quinolin-4-amine]	entirely inactive			Inactive	Inactive		
CCCc1nc2c(N)nc3ccc(Br)cc3c2s1 [Compound 14, 8-bromo-2-propylthiazolo[4,5-c]quinolin-4-amine]	inactive			Inactive	Inactive		
CCCC(=O)Nc1nc2ccccc2c2sc(CCC)nc12 [Compound 15f, N-(2-propylthiazolo[4,5-c]quinolin-4-yl)butyramide]	active				Inactive		
CCCCNc1nc2ccccc2c2sc(CCC)nc12 [Compound 15a, N-butyl-2-propylthiazolo[4,5-c]quinolin-4-amine]	devoid of any agonistic activity			Inactive	Inactive		
